Reference: the RepoRT retention time repository (doi:10.1007/s11306-014-0638-x)

Assay: RP, Waters ACQUITY UPLC HSS T3, 150 × 2.1 mm, 1.8 µm, 40 °C, 0.28 mL/min, estimated dead time 1.2 min; A: water + 0.1% formic acid, pH 3; B: methanol + 0.1% formic acid, pH 3; gradient (min/%B) 0/0 1/0 3/10 18/40 21/100 25.5/100 25.6/0 28/0
Settings: stereoisomer not certain

Compound | LC retention time [min]
COc1cc2ccc(=O)oc2c(OC2OC(CO)C(O)C(O)C2O)c1O (stereo not given) [fraxin] | 12.6
COc1cc(C=Cc2ccc(O)cc2)cc(OC)c1 [pterostilbene] | 21.9
O=c1cc[nH]c(=O)[nH]1 [uracil] | 2.34
O=c1[nH]c(=O)c2[nH]c(=O)[nH]c2[nH]1 [uric acid] | 3.44
COc1ccc(C2CC(=O)c3c(O)cc(O)cc3O2)cc1O (stereo not given) [hesperetin] | 21.1
O=c1[nH]c(=O)c2[nH]cnc2[nH]1 [xanthine] | 3.97
O=C(C=Cc1ccc(O)cc1)OC(C(=O)O)C(O)C(=O)O (stereo not drawn) [trans coutaric acid] | 10.7
Oc1cc(O)c2c(c1)OC(c1ccc(O)c(O)c1)C(O)C2c1c(O)cc(O)c2c1OC(c1ccc(O)c(O)c1)C(O)C2 (stereo not given) [procyanidin B1] | 9.66
CCC(=O)O [proprionic acid] | 3.95
O=c1oc2c(O)c(O)cc3c(=O)oc4c(O)c(O)cc1c4c23 [ellagic acid] | 20.3
Oc1ccc(C2Oc3cc(O)cc4c3C2c2cc(O)cc(O)c2C(c2ccc(O)cc2)C4C2c3cc(O)cc4c3C(c3cc(O)cc(O)c3C2c2ccc(O)cc2)C(c2ccc(O)cc2)O4)cc1 (stereo not given) [isohopeaphenol] | 10.7
Oc1cc(O)c2c(c1)OC(c1ccc(O)c(O)c1)C(O)C2 (stereo not given) [epicatechin] | 12.1
O=C(O)c1cc(O)cc(O)c1 [3,5-dihydroxybenzoic acid] | 7.75
O=C(O)c1ccc(O)c(O)c1 [3,4-dihydroxybenzoic acid] | 7.77
COc1cc(-c2oc3cc(=O)cc4oc(C)cc(c2OC2OC(CO)C(O)C(O)C2O)c43)cc(OC)c1O (stereo not given) [methylpyrano malvidin 3-glucoside] | 19.7
O=C(C=Cc1ccc(O)c(O)c1)OC(C(=O)O)C(O)C(=O)O (stereo not given) [caftaric acid] | 8.53
Oc1ccc(C2c3c(O)cc(O)cc3C3C(c4ccc(O)cc4)c4c(O)cc(O)cc4C23)cc1 (stereo not given) [pallidol] | 17.6
OCC1OC(Oc2cc(O)cc(C=Cc3ccc(O)cc3)c2)C(O)C(O)C1O (stereo not drawn) [cis-piceid] | 18.4
O=C(O)[C@@H]1CCCN1 [L-proline] | 1.51
CC1OC(OCC2OC(Oc3c(-c4ccc(O)c(O)c4)oc4cc(O)cc(O)c4c3=O)C(O)C(O)C2O)C(O)C(O)C1O (stereo not given) [quercetin 3-rutinoside] | 20

Compound | LC retention time [min]
O=C(O)CCC(=O)O [succinic acid] | 3.94
Oc1ccc(C2Oc3ccc(C=Cc4cc(O)cc5c4C(c4cc(O)cc(O)c4)C(c4ccc(O)cc4)O5)cc3C2c2cc(O)cc3c2C(c2cc(O)cc(O)c2)C(c2ccc(O)cc2)O3)cc1 (stereo not given) [vitisin B] | 18.3
Oc1ccc(/C=C\c2cc(O)cc(O)c2)cc1 [cis-resveratrol] | 20.4
N[C@@H](Cc1ccc(O)cc1)C(=O)O [L-tyrosine] | 4.28
CCOc1ccc(NC(C)=O)cc1 [phenacetin] | 19.4
Oc1ccc(C2Oc3cc(O)cc(O)c3CC2O)cc1 (stereo not given) [epiafzelechin] | 15.6
O=C1CC(c2ccc(O)cc2)Oc2cc(O)cc(O)c21 (stereo not given) [naringenin] | 21
NC(CCC(=O)NC(CS)C(=O)NCC(=O)O)C(=O)O [L-glutathione] | 1.7
COc1cc(-c2oc3cc(O)cc(O)c3c(=O)c2OC2OC(COC3OC(C)C(O)C(O)C3O)C(O)C(O)C2O)ccc1O (stereo not given) [isorhamnetin 3-rutinoside] | 20.6
COc1cc(C=Cc2cc(O)cc(OC3OC(CO)C(O)C(O)C3O)c2)ccc1O (stereo not given) [isorhapontin] | 17.6
O=C(O)C1OC(Oc2c(-c3ccc(O)c(O)c3)oc3cc(O)cc(O)c3c2=O)C(O)C(O)C1O (stereo not given) [quercetin 3-glucuronide] | 19.9
O=c1c(O)c(-c2ccc(OC3OC(CO)C(O)C(O)C3O)c(O)c2)oc2cc(O)cc(O)c12 (stereo not given) [quercetin 4'-glucoside] | 20.4
CCOC(=O)c1cc(O)c(O)c(O)c1 [ethyl gallate] | 15.2
O=C1CC(c2ccc(O)c(O)c2)c2c(cc(O)c3c2OC(c2ccc(O)c(O)c2)C(O)C3)O1 (stereo not given) [caffeic acid+catechin condensation product] | 17.8
O=C(O)C1(O)CC(O)C(O)C(O)C1 (stereo not given) [quinic acid] | 1.58
O=C(CCc1ccc(O)cc1)c1c(O)cc(O)cc1O [phloretin] | 21.1
COc1cc(-c2oc3cc(=O)cc4oc(O)cc(c2OC2OC(CO)C(O)C(O)C2O)c43)cc(OC)c1O (stereo not given) [oxovitisin A] | 20.7
O=C(O)C=Cc1ccccc1O [o-coumaric acid] | 19.7
CC(O)(CC(=O)O)C(=O)O (stereo not given) [citramalic acid] | 4.02
O=c1c(OC2OC(C(O)CO)C(O)C2O)c(-c2ccc(O)c(O)c2)oc2cc(O)cc(O)c12 (stereo not given) [quercetin 3-glucoside] | 20

Compound | LC retention time [min]
O=C1CC(c2ccc(O)cc2)Oc2cc(OC3OC(CO)C(O)C(O)C3O)cc(O)c21 (stereo not given) [naringenin 7-glucoside] | 19.5
O=C1c2c(O)cc(O)cc2OC(c2ccc(O)c(O)c2)C1O (stereo not given) [taxifolin] | 16.8
O=c1c(OC2OC(CO)C(O)C(O)C2O)c(-c2ccc(O)cc2)oc2cc(O)cc(O)c12 (stereo not given) [kaempferol 3-glucoside] | 20.3
COc1cc(-c2oc3cc(O)cc(O)c3c(=O)c2OC2OC(CO)C(O)C(O)C2O)ccc1O (stereo not given) [isorhamnetin 3-glucoside] | 20.5
O=C(O)c1ccc(O)cc1 [4-hydroxybenzoic acid] | 10.6
COc1cc(C=CC(=O)OC(C(=O)O)C(O)C(=O)O)ccc1O (stereo not given) [fertaric acid] | 11.8
CC1OC(OCC2OC(Oc3c(-c4ccc(O)cc4)oc4cc(O)cc(O)c4c3=O)C(O)C(O)C2O)C(O)C(O)C1O (stereo not given) [kaempferol 3-rutinoside] | 20.5
OCC1OC(Oc2cc(O)cc(C=Cc3ccc(O)c(O)c3)c2)C(O)C(O)C1O (stereo not given) [astringin] | 14.2
Oc1cc(O)c2c(c1)OC(c1cc(O)c(O)c(O)c1)C(O)C2 (stereo not given) [gallocatechin] | 8.68
O=c1cc(-c2ccc(O)c(O)c2)oc2cc(OC3OC(CO)C(O)C(O)C3O)cc(O)c12 (stereo not given) [luteolin 7-glucoside] | 19.7
O=c1c(OC2OC(CO)C(O)C(O)C2O)c(-c2ccc(OC3OC(CO)C(O)C(O)C3O)c(O)c2)oc2cc(O)cc(O)c12 (stereo not given) [quercetin 3,4'-diglucoside] | 17.4
O=c1c(OS(=O)(=O)O)c(-c2ccc(O)c(O)c2)oc2cc(O)cc(O)c12 [quercetin 3-sulfate] | 20.1
COc1cc(-c2oc3cc(=O)cc4oc(O)c(C=[OH+])c(c2OC2OC(CO)C(O)C(O)C2O)c43)cc(OC)c1O (stereo not given) [vitisin A] | 19.3
O=C(OC1Cc2c(O)cc(O)cc2OC1c1cc(O)c(O)c(O)c1)c1cc(O)c(O)c(O)c1 (stereo not given) [epigallo-catechin gallate] | 12.7
COc1cc(C(=O)O)cc(OC)c1O [syringic acid] | 13.8
O=C(O)[C@H](O)[C@@H](O)C(=O)O [L-tartaric acid] | 1.46
COC(=O)c1cc(O)c(O)c(O)c1 [methyl gallate] | 10.7
O=C(CCc1ccc(O)cc1)c1c(O)cc(O)cc1OC1OC(CO)C(O)C(O)C1O (stereo not given) [phloridzin] | 20.2
O=C(OC1Cc2c(O)cc(O)cc2OC1c1ccc(O)c(O)c1)c1cc(O)c(O)c(O)c1 (stereo not given) [epicatechin gallate] | 16
CC[C@H](C)[C@H](N)C(=O)O [L-isoleucine] | 4.44
